T1: HISp7 (HCV p7 with 6-HIS linker) (Hepatitis C virus genotype 1b, UniProt O92972)
T1 construct: the p7 protein of HCV is a 63 amino acid protein; GST (N, cleaved yes); made in house; host or cells: E. coli (pGEXHISp7 in pGEX4T1; DH5alpha is named for cloning)
T1 sequence (O92972 747-809 limits assumed): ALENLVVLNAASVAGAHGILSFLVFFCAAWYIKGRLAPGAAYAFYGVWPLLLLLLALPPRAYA

T2: HCV p7 (Hepatitis C virus genotype 1b, UniProt O92972)
T2 construct: the p7 protein of HCV is a 63 amino acid protein; expressed in transfected cells; host or cells: Vero cells (T7-driven expression, lipofectamine transfection)
T2 sequence (O92972 747-809 limits assumed): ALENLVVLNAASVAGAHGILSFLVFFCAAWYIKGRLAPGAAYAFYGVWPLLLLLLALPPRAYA


What was measured:
[1] = biological target: T1, HISp7 (HCV p7 with 6-HIS linker); assay type: biochemical, hepatitis C virus 1B (J4 isolate)
HCV p7 = biological target: T2, HCV p7; assay type: cell-based
[2] = biological target: the molecule itself; experiment: self-association in HepG2 cell membranes

| Molecule | inhibition of ion channel formation by HISp7 [1] | inhibition of HA transport facilitated by HCV p7 (HCV p7) | binding result [2] |
| --- | --- | --- | --- |
| NC12CC3CC(CC(C3)C1)C2 [amantadine] | inhibits ion channel formation by HISp7 FIG. 9) in the micromolar range | HA transport is inhibited |  |
| hepatitis C virus (HCV) p7 protein (other, mature; p7 expressed alone in hepatocyte-derived (HepG2) cells; The mammalian expression construct is not described; p7 is the 63-residue part of it) ALENLVVLNAASVAGAHGILSFLVFFCAAWYIKGRLAPGAAYAFYGVWPLLLLLLALPPRAYA |  |  | binds |
